Assay [1] addresses Casein kinase I isoform delta (Homo sapiens, UniProt P48730). Description: Inhibition of human recombinant casein kinase-1 delta using casein as substrate after 60 mins by kinase-glo luminescence assay.
Another assay concerns HL-60. The assay can be described thus: Cytotoxicity against human HL60 cells after 72 hrs by Alamar Blue assay. The format is functional, cell-based. To be noted: HL-60, 72 h. Background: Resazurin is reduced to fluorescent resorufin, in cell work by metabolically active cells.
Assay [2] deals with Glycogen synthase kinase-3 beta (Homo sapiens, UniProt P49841). The assay can be described thus: Inhibition of human recombinant GSK-3 beta after 30 mins by luminescence assay.
Sequence of Glycogen synthase kinase-3 beta (P49841 whole entry): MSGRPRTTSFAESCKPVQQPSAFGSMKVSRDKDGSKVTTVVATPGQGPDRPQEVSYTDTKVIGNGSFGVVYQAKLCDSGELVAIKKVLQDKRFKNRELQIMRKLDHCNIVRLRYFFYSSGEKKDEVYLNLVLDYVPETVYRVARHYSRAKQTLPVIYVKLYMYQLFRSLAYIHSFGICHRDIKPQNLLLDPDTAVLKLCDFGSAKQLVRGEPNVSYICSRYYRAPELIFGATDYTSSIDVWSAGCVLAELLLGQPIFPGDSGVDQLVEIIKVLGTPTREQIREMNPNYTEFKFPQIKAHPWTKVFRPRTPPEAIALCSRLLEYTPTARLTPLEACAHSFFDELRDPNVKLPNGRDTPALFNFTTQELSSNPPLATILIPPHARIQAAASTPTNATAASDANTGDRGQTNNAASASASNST
In assay [3] the target is Serine/threonine-protein kinase B-raf (Homo sapiens) (UniProt P15056). The assay can be described thus: Competitive binding to B-RAF kinase (unknown origin) at 100 nM to 100 uM after 60 to 120 mins by FRET analysis.
Sequence of Serine/threonine-protein kinase B-raf (Homo sapiens) (P15056 whole entry): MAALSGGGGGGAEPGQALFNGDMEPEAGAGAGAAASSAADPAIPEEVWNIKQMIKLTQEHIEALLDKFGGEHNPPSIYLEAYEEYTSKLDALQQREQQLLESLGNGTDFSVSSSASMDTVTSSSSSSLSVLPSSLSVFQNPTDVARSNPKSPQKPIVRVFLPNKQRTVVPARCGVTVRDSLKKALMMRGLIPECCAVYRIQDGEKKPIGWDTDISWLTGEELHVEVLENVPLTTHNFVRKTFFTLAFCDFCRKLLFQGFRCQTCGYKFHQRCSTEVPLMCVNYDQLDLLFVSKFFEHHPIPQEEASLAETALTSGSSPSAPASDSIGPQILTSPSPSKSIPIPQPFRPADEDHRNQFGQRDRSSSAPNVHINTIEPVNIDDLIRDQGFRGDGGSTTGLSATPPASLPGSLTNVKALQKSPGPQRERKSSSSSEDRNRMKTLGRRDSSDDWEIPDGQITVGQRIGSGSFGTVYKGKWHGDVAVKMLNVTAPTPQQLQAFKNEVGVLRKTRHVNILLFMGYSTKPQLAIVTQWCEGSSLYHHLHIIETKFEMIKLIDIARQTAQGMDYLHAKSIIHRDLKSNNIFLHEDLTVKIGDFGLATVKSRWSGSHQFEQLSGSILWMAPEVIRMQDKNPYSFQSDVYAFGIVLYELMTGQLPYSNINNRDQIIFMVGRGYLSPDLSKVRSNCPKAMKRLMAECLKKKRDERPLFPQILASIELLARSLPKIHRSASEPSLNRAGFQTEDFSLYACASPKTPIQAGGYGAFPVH
A further assay relates to HUVEC. The assay can be described thus: Inhibition of VEGFR in HUVEC using […] as substrate at 10 uM incubated for 20 mins prior to substrate addition relative to control. In kind it is cell-based. As to conditions: Homo sapiens.
The target in assay [4] is MAP kinase p38 (Homo sapiens) (UniProt O15264+Q15759+Q16539+P53778). Description: Inhibition of P38 MAP kinase in human A431 cells using TNF-alpha as substrate at 10 uM incubated for 5 mins prior to substrate addition measured after 10 mins by fluorescence assay relative to control. The format is cell-based. As to conditions: A-431.
Assay [5] concerns the target Serine/threonine-protein kinase RAF and Dual specificity mitogen-activated protein kinase kinase 1 (Raf/MEK) (Homo sapiens) (UniProt P04049+Q02750). The assay can be described thus: Inhibition of RAF-1/MEK1 (unknown origin) assessed as at 10 uM after 5 mins by fluorescence assay relative to control. The format is protein assay.
The target of assay [6] is Mitogen-activated protein kinase; ERK1/ERK2 (Homo sapiens) (UniProt P27361+P28482). The assay can be described thus: Inhibition of ERK1/2 kinase in human A431 cells using EGF as substrate at 10 uM incubated for 5 mins prior to substrate addition measured after 10 mins by fluorescence assay relative to control. In kind it is cell-based. As to conditions: A-431.
Sequence of Mitogen-activated protein kinase; ERK1/ERK2 (Homo sapiens) (P27361 whole entry, looked up): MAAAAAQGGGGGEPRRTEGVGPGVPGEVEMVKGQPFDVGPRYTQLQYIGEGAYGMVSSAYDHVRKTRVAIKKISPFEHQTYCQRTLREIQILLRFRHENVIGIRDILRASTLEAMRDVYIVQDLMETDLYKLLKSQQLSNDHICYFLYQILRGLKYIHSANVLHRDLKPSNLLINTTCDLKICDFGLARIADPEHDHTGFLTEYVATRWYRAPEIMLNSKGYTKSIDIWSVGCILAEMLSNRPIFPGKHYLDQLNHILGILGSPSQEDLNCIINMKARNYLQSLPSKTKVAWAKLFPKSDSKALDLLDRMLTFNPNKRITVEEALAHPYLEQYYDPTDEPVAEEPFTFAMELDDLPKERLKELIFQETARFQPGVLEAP
Sequence of Mitogen-activated protein kinase; ERK1/ERK2 (Homo sapiens) (P28482 whole entry, looked up): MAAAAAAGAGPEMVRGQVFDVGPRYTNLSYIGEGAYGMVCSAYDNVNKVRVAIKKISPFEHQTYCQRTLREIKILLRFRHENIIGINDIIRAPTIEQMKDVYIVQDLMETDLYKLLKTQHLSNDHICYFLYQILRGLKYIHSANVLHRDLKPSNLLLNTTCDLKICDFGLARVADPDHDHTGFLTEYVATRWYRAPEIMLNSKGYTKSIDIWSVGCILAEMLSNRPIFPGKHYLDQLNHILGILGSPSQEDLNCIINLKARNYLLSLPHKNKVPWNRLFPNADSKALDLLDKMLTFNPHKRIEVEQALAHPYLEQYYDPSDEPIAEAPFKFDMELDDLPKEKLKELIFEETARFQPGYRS

pIC50: −log10 of the molar value. Calls of active or inactive are those of the source. No cut-off for these calls is given here.

Sequence of Casein kinase I isoform delta (P48730 whole entry, canonical isoform): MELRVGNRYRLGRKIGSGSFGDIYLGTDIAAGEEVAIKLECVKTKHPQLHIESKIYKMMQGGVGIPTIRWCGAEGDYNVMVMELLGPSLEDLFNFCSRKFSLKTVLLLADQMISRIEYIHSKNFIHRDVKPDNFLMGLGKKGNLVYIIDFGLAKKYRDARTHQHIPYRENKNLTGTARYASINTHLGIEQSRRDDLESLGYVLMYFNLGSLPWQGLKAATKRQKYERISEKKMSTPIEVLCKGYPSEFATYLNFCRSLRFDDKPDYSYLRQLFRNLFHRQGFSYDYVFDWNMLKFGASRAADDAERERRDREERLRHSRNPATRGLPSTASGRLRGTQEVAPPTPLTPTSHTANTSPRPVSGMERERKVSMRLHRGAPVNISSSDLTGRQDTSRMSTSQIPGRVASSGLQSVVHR
Sequence of Serine/threonine-protein kinase RAF and Dual specificity mitogen-activated protein kinase kinase 1 (Raf/MEK) (Homo sapiens) (P04049 whole entry, looked up): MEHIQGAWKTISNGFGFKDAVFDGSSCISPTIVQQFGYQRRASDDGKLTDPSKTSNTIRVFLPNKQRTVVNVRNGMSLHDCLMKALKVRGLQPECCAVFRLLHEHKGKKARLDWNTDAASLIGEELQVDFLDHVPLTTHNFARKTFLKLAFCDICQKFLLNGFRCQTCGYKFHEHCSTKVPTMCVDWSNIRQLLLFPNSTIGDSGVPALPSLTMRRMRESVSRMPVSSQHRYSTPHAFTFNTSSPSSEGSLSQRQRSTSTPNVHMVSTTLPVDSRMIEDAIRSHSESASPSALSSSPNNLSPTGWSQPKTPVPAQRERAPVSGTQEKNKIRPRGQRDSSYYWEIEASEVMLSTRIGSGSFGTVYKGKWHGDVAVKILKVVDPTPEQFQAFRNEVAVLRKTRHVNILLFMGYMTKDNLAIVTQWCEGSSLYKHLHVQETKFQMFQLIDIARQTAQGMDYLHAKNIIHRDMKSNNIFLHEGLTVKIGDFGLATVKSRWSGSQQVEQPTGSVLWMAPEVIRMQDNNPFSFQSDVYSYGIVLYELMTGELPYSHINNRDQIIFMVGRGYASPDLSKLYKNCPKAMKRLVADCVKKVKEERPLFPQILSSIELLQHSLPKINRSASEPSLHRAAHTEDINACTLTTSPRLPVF
Sequence of Serine/threonine-protein kinase RAF and Dual specificity mitogen-activated protein kinase kinase 1 (Raf/MEK) (Homo sapiens) (Q02750 whole entry, looked up): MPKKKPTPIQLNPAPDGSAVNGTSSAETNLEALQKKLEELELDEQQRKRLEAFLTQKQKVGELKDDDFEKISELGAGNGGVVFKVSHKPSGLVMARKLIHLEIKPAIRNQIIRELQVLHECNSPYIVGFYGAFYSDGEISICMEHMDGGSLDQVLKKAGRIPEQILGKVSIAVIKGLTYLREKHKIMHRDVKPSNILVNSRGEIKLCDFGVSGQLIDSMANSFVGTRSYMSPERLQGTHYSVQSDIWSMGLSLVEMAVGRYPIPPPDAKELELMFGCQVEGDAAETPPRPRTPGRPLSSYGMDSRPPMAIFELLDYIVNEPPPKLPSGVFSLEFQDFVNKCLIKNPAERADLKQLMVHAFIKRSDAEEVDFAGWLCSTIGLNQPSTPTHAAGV

For `c1cc(NC2=NCCN2)cc(Oc2ccc(NC3=NCCN3)cc2)c1`, the pIC50 (in assay [1]; in the assay with HL-60; in assay [2]) was < 4.00 each time.
With `N=C(N)Nc1cccc(Cc2ccc(NC(=N)Nc3ccccc3)cc2)c1`, the pIC50 (in assay [1]; with HL-60; in assay [2]) was < 4.00 each time.
As to `N=C(N)Nc1ccc(Cc2cccc(NC(=N)Nc3ccc(Cl)c(C(F)(F)F)c3)c2)cc1`, the figures for the pIC50 (in assay [1]; in the assay with HL-60; in assay [2]) were < 4.00, 4.78 and < 4.00, respectively. Also, in assay [3], the outcome was inactive.
Consider `N=C(N)Nc1cccc(Nc2ccc(NC(=N)Nc3ccc(Cl)c(C(F)(F)F)c3)cc2)c1`, for which the inhibition was -3% in the assay on HUVEC, 12% in assay [4] and 74% in assay [5]. In addition, the results for the pIC50 (in assay [1]; in the assay with HL-60; in assay [2]) were < 4.00, 4.44 and < 4.00, respectively. Further, in assay [3], the outcome was inactive.
As to `N=C(N)Nc1ccc(Nc2cccc(NC(=N)N)c2)cc1`, the inhibition is -6% in the assay with HUVEC, 4% in assay [4] and 86% in assay [5]. Besides, the results for the pIC50 (in assay [1]; in the assay with HL-60; in assay [2]) were < 4.00, 4.17 and < 4.00, respectively.
For the molecule `N=C(N)Nc1cccc(Oc2ccc(NC(=N)Nc3ccccc3)cc2)c1`, the inhibition in the assay with HUVEC was -1%; in assay [4], 1%; in assay [5], 4%. Besides, the pIC50 (in assay [1]; in the assay on HL-60; in assay [2]) was < 4.00 throughout.
On to `CC(=O)Nc1cccc(Oc2ccc(NC(=N)Nc3ccc(Cl)c(C(F)(F)F)c3)cc2)c1`, for which the inhibition in assay [4] is 0%; in assay [6], 8%; in assay [5], 35%. For the same molecule, the pIC50 in assay [1] is < 4.00; in the assay on HL-60 it was 5.04; in assay [2], < 4.00. In addition, the outcome in assay [3] was inactive.
As for `CNC(=O)c1cc(Oc2ccc(NC(=O)Nc3ccc(Cl)c(C(F)(F)F)c3)cc2)ccn1` [SORAFENIB], the pIC50 in the assay on HL-60 is 5.77.
Take `N=C(N)Nc1cccc(C(=O)c2ccc(NC(=N)Nc3ccc(Cl)c(C(F)(F)F)c3)cc2)c1`: the inhibition in the assay with HUVEC is 0%; in assay [4] it was 20%; in assay [6] it was 21%; in assay [5] it was 96%. Moreover, the pIC50 in assay [1] was < 4.00; with HL-60, 4.65; in assay [2] it was < 4.00. The result in assay [3] was inactive.
As for `N=C(N)Nc1ccc(Cc2cccc(NC(=N)Nc3ccccc3)c2)cc1`, the pIC50 (in assay [1]; in the assay with HL-60; in assay [2]) was < 4.00 each time.
As to `N=C(N)Nc1ccc(Oc2cccc(NC(=N)Nc3ccccc3)c2)cc1`, the pIC50 (in assay [1]; in the assay on HL-60; in assay [2]) was < 4.00 in each case.
In the case of `N=C(N)Nc1cccc(Oc2ccc(NC(=N)Nc3ccc(Cl)c(C(F)(F)F)c3)cc2)c1`, the inhibition in the assay with HUVEC is 0%; in assay [4] it was 21%; in assay [6], -7%; in assay [5], 96%. The pIC50 in assay [1] is < 4.00; in the assay with HL-60, 4.61; in assay [2] it was < 4.00. For the same molecule, the result in assay [3] was inactive.
Turning to `N=C(N)Nc1ccc(Oc2ccc(NC(=N)N)cc2)cc1`, the inhibition in the assay with HUVEC is 7%; in assay [4], -1%; in assay [6], 6%; in assay [5], 2%. In addition, the negative logarithm of the IC50 (pIC50) in assay [1] is < 4.00; in the assay with HL-60 it was 4.05; in assay [2], < 4.00.
`N=C(N)Nc1ccc(Cc2cccc(NC(=N)N)c2)cc1`: the pIC50 in assay [1] is < 4.00; in the assay with HL-60 it was 4.45; in assay [2], < 4.00.
For `O=C(c1ccc(NC2=NCCN2)cc1)c1cccc(NC2=NCCN2)c1`, the pIC50 (in assay [1]; with HL-60; in assay [2]) was < 4.00 in each case.
As for `N=C(N)Nc1cccc(Nc2ccc(NC(=N)Nc3ccccc3)cc2)c1`, the pIC50 (in assay [1]; in the assay with HL-60; in assay [2]) was < 4.00 each time.
Turning to `N=C(N)Nc1ccc(Oc2cccc(NC(=N)N)c2)cc1`, the inhibition in the assay on HUVEC is -1%; in assay [4], -1%; in assay [6] it was -4%; in assay [5], 22%. For the same molecule, the results for the pIC50 (in assay [1]; with HL-60; in assay [2]) were < 4.00, 4.44 and < 4.00, respectively.
Regarding `CC(=O)Nc1cccc(Nc2ccc(NC(=N)Nc3ccc(Cl)c(C(F)(F)F)c3)cc2)c1`, the inhibition came to 1% in the assay on HUVEC, 12% in assay [4], 12% in assay [6] and 38% in assay [5]. For the same molecule, the pIC50 is < 4.00 in assay [1], 5.40 in the assay on HL-60 and < 4.00 in assay [2]. Besides, the result in assay [3] was inactive.
Turning to `N=C(N)Nc1cccc(Cc2ccc(NC(=N)Nc3ccc(Cl)c(C(F)(F)F)c3)cc2)c1`, the inhibition in the assay on HUVEC was 17%; in assay [4] it was -7%; in assay [6] it was 17%; in assay [5], 99%. Besides, the pIC50 in assay [1] is < 4.00; in the assay with HL-60, 4.80; in assay [2], < 4.00. Besides, in assay [3], the result was inactive.
`N=C(N)Nc1cccc(C(=O)c2ccc(NC(=N)Nc3ccccc3)cc2)c1`: the pIC50 (in assay [1]; in the assay on HL-60; in assay [2]) was < 4.00 in each case.
As for `c1cc(Cc2ccc(NC3=NCCN3)cc2)cc(NC2=NCCN2)c1`, the pIC50 (in assay [1]; in the assay with HL-60; in assay [2]) was < 4.00 throughout.
As for `N=C(N)Nc1ccc(C(=O)c2cccc(NC(=N)N)c2)cc1`, the pIC50 in assay [1] was < 4.00; with HL-60, 3.85; in assay [2], < 4.00.

By pIC50 is commonly meant the negative decadic logarithm of the IC50, by convention in mol/L. Usually inhibition stands for the drop in the measured response relative to a control, in per cent.

Values taken from ChEMBL document CHEMBL3286227, “Guanidinium-based derivatives: searching for new kinase inhibitors” (Eur J Med Chem, 2014).
